From ChEMBL document CHEMBL4261488, “Do GluN2B subunit containing NMDA receptors tolerate a fluorine atom in the phenylalkyl side chain?” (Medchemcomm, 2017) come the findings set out here.

The target of test [1] is Glutamate receptor ionotropic, NMDA 2B (Homo sapiens, UniProt Q13224). Description: Displacement of [3H]-ifenprodil from GluN2B receptor (unknown origin) expressed in mouse L (tk-) cell membranes after 120 mins by scintillation counting method. A general note: In a radioligand displacement assay an active substance lowers the binding of a labelled ligand.
In test [2] the target is Sigma non-opioid intracellular receptor 1 (Cavia porcellus, UniProt Q60492). Type of test: cell membranes, Brain, Membrane.
A short description of test [3]: Displacement of [3H]-di-o-tolylguanidine from sigma 2 receptor in rat liver membranes after 120 mins by scintillation counting analysis. In kind it is cell membranes, Membrane.
The species entered for test [4] is Sus scrofa. Description: Displacement of [3H]-(+)-MK-801 from PCP binding site of NMDA receptor in pig brain cortex membranes at 1 uM after 90 mins by scintillation counting method relative to control. In kind it is cell membranes.

One may read the pKi as the Ki on a negative log10 scale, so that one unit is a factor of ten. Lower therefore signals a large Ki. In general, inhibition refers to the change of the read-out against control, counted positive when it falls. Read a high inhibition as strong suppression.

Molecules are shown by their SMILES. pKi: −log10 of the molar value.

Chain of Glutamate receptor ionotropic, NMDA 2B (Q13224 whole entry): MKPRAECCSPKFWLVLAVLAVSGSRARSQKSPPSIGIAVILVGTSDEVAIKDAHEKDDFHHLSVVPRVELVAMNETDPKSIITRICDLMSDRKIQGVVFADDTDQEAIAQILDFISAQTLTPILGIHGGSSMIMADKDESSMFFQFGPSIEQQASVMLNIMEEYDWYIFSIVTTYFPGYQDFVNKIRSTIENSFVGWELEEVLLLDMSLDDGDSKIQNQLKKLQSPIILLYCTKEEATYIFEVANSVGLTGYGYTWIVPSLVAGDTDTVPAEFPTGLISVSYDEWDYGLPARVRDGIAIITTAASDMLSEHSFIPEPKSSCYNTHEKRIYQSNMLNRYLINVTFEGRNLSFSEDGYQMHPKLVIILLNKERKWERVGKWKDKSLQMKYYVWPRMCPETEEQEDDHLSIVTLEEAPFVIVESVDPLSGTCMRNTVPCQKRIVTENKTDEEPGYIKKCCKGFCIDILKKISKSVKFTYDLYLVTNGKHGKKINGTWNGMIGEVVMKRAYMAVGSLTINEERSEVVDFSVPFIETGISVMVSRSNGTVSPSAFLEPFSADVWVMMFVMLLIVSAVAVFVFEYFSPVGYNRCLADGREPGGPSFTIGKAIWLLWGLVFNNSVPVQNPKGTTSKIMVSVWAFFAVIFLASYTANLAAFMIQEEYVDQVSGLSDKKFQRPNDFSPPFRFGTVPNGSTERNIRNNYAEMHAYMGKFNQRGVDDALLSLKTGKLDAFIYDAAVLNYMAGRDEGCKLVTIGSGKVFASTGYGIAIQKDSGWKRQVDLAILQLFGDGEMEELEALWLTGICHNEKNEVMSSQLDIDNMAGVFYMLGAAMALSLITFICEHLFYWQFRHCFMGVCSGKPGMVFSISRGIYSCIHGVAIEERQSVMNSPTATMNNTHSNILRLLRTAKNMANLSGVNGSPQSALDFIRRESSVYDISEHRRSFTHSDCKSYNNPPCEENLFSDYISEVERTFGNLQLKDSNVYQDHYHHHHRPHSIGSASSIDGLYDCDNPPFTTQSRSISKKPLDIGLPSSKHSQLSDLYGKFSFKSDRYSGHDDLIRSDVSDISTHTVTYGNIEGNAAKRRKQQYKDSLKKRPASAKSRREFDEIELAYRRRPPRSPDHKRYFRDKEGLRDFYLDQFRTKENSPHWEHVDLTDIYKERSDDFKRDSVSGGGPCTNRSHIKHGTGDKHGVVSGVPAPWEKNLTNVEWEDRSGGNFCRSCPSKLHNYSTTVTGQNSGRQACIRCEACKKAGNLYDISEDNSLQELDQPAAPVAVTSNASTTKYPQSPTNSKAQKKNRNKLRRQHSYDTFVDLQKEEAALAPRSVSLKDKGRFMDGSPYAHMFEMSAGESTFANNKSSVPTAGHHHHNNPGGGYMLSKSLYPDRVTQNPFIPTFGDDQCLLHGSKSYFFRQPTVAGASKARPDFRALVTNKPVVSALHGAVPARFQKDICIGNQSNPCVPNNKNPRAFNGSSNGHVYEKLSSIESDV
Chain of Sigma non-opioid intracellular receptor 1 (Q60492 whole entry): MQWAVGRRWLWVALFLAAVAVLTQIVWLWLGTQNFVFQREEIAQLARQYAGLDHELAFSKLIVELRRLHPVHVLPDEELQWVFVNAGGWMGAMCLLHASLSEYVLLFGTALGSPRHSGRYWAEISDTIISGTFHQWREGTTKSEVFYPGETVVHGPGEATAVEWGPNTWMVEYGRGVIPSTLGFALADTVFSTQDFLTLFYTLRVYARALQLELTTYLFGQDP

As to `COc1ccc2c(c1)CC[C@H](NCCCc1ccccc1)C[C@@H]2O` (relative stereo), in test [1], the pKi is 7.80.

Molecule `COc1ccc2c(c1)CCC(NCCCc1ccccc1)CC2` (stereo not given) showed a pKi in test [1] of 7.96.

Regarding `FC(CNC1CCc2ccccc2CC1)Cc1ccccc1` (stereo not given), the pKi in test [2] was 7.27; in test [3], 7.85; in test [1], 7.77. The inhibition in test [4] amounted to 2%.

As to `FC(CCc1ccccc1)CNC1CCc2ccccc2CC1` (stereo not given), the pKi in test [2] was 7.09; in test [3], 7.72; in test [1], 7.57. In addition, the inhibition in test [4] came out at 3%.
